Reference: paper PMC8322070, “A novel orally active HDAC6 inhibitor T-518 shows a therapeutic potential for Alzheimer’s disease and tauopathy in mice” (Scientific Reports, 2021)

What was measured:
[1] = test system: Histone H3 acetylation in mouse primary neural cultures; assay: Histone H3 acetylation in mouse primary neural culture (Western blotting); type: cell-based; conditions: DIV6 mouse primary neural culture, 3 and 30 μM, 24 h
Experimental: (§1) T-518, ACY-738, Ricolinostat, and Tubastatin A were synthesized in Takeda. For in vitro cellular experiments, the compounds were solubilized with DMSO and diluted in the culture medium at the indicated concentrations. For in vivo experiments, the compound was reconstituted in 0.5% methylcellulose and administered orally at the indicated doses. After administration, mouse hippocampus was isolated and homogenized in RIPA extraction buffer (50 mM Tris–HCl, 150 mM NaCl, 1% NP-40, 0.5% sodium deoxycholate, and 0.1% SDS, pH 8.0) supplemented with protease and phosphatase inhibitor cocktail (Thermo Fischer, Waltham, MA, USA). The homogenate was centrifuged at 10,000g for 15 min and the supernatant was taken as the RIPA-soluble fraction.
(§2) Primary cortical neurons were prepared from E14 C57BL/6J mouse embryos (CLIEA Japan, Inc., Tokyo, Japan) using papain-containing Neuron Dissociation Solutions (Fujifilm Wako, Tokyo, Japan). Isolated cells were suspended in Neurobasal Medium containing B-27 (Thermo Fisher) and seeded on poly-D-lysine-coated plates (Corning, NY, USA) under 5% CO2 at 37 °C for 6 days in vitro (DIV) prior to evaluation of HDAC6 inhibitors. Cells were treated with HDAC6 inhibitors at the indicated concentrations for 24 h and lysed in RIPA extraction buffer (50 mM Tris–HCl, 150 mM NaCl, 1% NP-40, 0.5% sodium deoxycholate, and 0.1% SDS, pH 8.0) supplemented with protease and phosphatase inhibitor cocktail (Thermo Fisher).
Cell lysate or in vivo protein samples were separated by 10% SDS-PAGE, then electrophoretically transferred to 0.45 μm poly-vinylidene difluoride membranes (Millipore). Membranes were blocked for 1 h in Blocking Reagent (TOYOBO, Osaka, Japan), probed with primary antibodies followed by labeling with HRP-coupled secondary antibodies (Amersham, Piscataway, NJ), and then visualized using chemiluminescence reagent (ECL; Amersham). Images were captured using ImageQuant LAS 4000 (GE healthcare Bio-Sciences, Marlborough, MA, USA). Quantitative densitometric analyses were conducted using ImageQuant TL (GE healthcare Bio-Sciences). The protocol was slightly modified for detection of HDAC6 in cortex. Briefly, cerebral cortex was homogenized in RIPA buffer supplemented with 1 μM microstatin, 1 μM MG115, 40 μM Leupeptin, 100 μM ABSF, and 2 mM sodium orthovanadate, separated by 7.5–15% gradient SDS-PAGE and electrophoretically transferred to 0.45 μm poly-vinylidene difluoride membranes (Millipore). Membranes were blocked for 1 h with ECL Prime Blocking Reagent (Amersham, Piscataway, NJ) prior to immunoblotting, visualization, and densitometry as described above.

[2] = test system: tubulin acetylation in mouse primary neural cultures; assay: Tubulin acetylation in mouse primary neural culture (ELISA); type: cell-based; conditions: DIV6 mouse primary neural culture, 0.1–10 μM, 24 h, ELISA
Experimental: as §1, §2
Acetylated α-tubulin and total tubulin levels were measured by sandwich ELISA. Ninety six-well plates (Microlite2+, Thermo) were coated with α-tubulin capture antibody (1:100) by overnight incubation at 4 °C, washed 4 times with PBS'T, treated with blocking buffer (1% bovine serum albumin in PBS'T) at 37 °C for 2 h, and washed another 4 times with PBS’T. Cell or tissues lysate was added to the wells and plates were incubated at 37 °C for 2 h. Plates were then washed 4 times with PBST, incubated with a detection antibody for acetylated tubulin or total α-tubulin diluted in blocking buffer at 37℃ for 1 h, rewashed 4 more times with PBST, incubated with a mouse secondary antibody conjugated to horseradish peroxidase (HRP) for 30 min, wash 4 times again with PBST, and then incubated with chemiluminescent substrate (SuperSignal).

class IIa HDACs = assay: HDAC selectivity panel (Reaction Biology Corporation), class IIa; type: biochemical; conditions: heat map Fig. 2A
Experimental: (§3) Recombinant HDAC6, HDAC7, HDAC1 were obtained from SignalChem Pharmaceutical Inc. (Richmond, BC, Canada), and recombinant human HDAC4 was prepared at Takeda pharmaceutical company. One μL of T-518 diluted with DMSO was added to 75 μL of assay buffer (24 mM Tris–HCl (pH 7.5), 135 mM NaCl, 0.35 mM KCl, 1 mM MgCl2, 0.01% Tween 20, 0.6 mM GSH) in 384 well plates. Two μL of diluted compounds were added to 384 well plates and 2 μL of recombinant HDAC enzymes was added and then centrifuged at 1000 rpm for 10 s. The final concentrations of each HDAC enzyme were as follows, human HDAC1, 170 pM; human HDAC6, […]; human HDAC4, 68 pM; human HDAC7, 13 pM. After incubation for 60 min at room temperature, 4 μL of HDAC-Glo reagent [HDAC-Glo I/II (Promega) for HDAC6 and HDAC1, HDAC-Glo class IIa (Promega) for HDAC4 and HDAC7] was added to start the reaction. After incubation for 20 min at room temperature, the luminescence was measured by Envision plate reader (PerkinElmer, Waltham, MA, USA). For experiments under the condition of 0 min preincubation, 4 μL of HDAC-Glo reagent was added at first to the 384 well plates including diluted compounds. After centrifugation at 1000 rpm for 10 s, 2 μL of HDAC enzyme solution was added. After centrifugation at 1000 rpm for 10 s. and then incubation for 20 min at room temperature, the luminescence was measured by Envision. For determination of inhibitory activity of T-518, the vehicle signal was set as 0% and the signal in the absence of HDAC enzyme was set as 100% inhibition. The inhibitory activity of T-518 was expressed as the value of IC50. The IC50 value and 95% confidence intervals were calculated by XLfit (IDBS, Surrey, UK). The HDAC selectivity panel was conducted by Reaction Biology Corporation (Malvern, PA, USA).

class I HDACs = assay: HDAC selectivity panel (Reaction Biology Corporation), class I; type: biochemical; conditions: heat map Fig. 2A
Experimental: as §3, with “After centrifugation at 1000 rpm for 10 s, 2 μL of HDAC enzyme solution was added.” left out, “For determination of inhibitory activity of T-518, the vehicle signal was set as 0% and the signal in the absence of HDAC enzyme was set as 100% inhibition.” left out, “The IC50 value and 95% confidence intervals were calculated by XLfit (IDBS, Surrey, UK). The HDAC selectivity panel was conducted by Reaction Biology Corporation (Malvern, PA, USA).” left out

Row | Structure (SMILES) | effect on Histone H3 acetylation [1] | effect on tubulin acetylation [2] | inhibition of class IIa HDACs in HDAC panel (class IIa HDACs) | inhibition of class I HDACs in HDAC panel (class I HDACs)
1 | CN1CCc2c(c3ccccc3n2Cc2ccc(C(=O)NO)cc2)C1 [Tubastatin A] | neither T-518 nor Tubastatin A at 3 and 30 μM demonstrates this activity | significantly and concentration-dependently elevates tubulin acetylation | inhibits | –
2 | O=C(NO)c1cnc(NC2(c3ccccc3)CC2)nc1 [ACY-738] | increase the acetylation of histone H3 | significantly and concentration-dependently elevates tubulin acetylation | slightly inhibit | slightly inhibit
3 | O=C(CCCCCCNC(=O)c1cnc(N(c2ccccc2)c2ccccc2)nc1)NO [Ricolinostat] | increase the acetylation of histone H3 | significantly and concentration-dependently elevates tubulin acetylation | slightly inhibit | slightly inhibit
